According to PubChem BioAssay AID330 (DTP/NCI, 2004):
Several values for one entry are separate records, joined by “and”; a condition that tells them apart may be missing. Identical values can stand only once. Toxic doses and inconclusive results are not listed.

System: P388 leukemia ip, CD2F1 mice, survival T/C
Experiment: NCI In Vivo Anticancer Drug Screen. Data for tumor model P388 Leukemia (intraperitoneal) in CD2F1 (CDF1) mice
Details: endpoint: median survival time, higher = longer survival
In short: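 Mice carrying the transplanted tumor received test compound or vehicle. Survival was recorded in each group, and the value is the treated-group measurement divided by that of the vehicle-treated control group.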

[1] = dose: 100.0 mg/kg/injection, schedule: Q01DX009 (ip), vehicle: saline
[2] = dose: 12.5 mg/kg/injection, schedule: Q01DX009 (ip), vehicle: saline with Tween-80
[3] = dose: 25.0 mg/kg/injection, schedule: Q01DX009 (ip), vehicle: saline with Tween-80
[4] = dose: 50.0 mg/kg/injection, schedule: Q01DX009 (ip), vehicle: saline
[5] = dose: 50.0 mg/kg/injection, schedule: Q01DX009 (ip), vehicle: Klucel (hydroxypropylcellulose) (HPC)
[6] = dose: 100.0 mg/kg/injection, schedule: Q01DX009 (ip), vehicle: Klucel (hydroxypropylcellulose) (HPC)
[7] = dose: 200.0 mg/kg/injection, schedule: Q01DX009 (ip), vehicle: Klucel (hydroxypropylcellulose) (HPC)
[8] = dose: 60.0 mg/kg/injection, schedule: Q01DX005 (ip), vehicle: saline with Tween-80
[9] = dose: 120.0 mg/kg/injection, schedule: Q01DX005 (ip), vehicle: saline with Tween-80
[10] = dose: 240.0 mg/kg/injection, schedule: Q01DX005 (ip), vehicle: saline with Tween-80
[11] = dose: 50.0 mg/kg/injection, schedule: Q01DX005 (ip), vehicle: Klucel (hydroxypropylcellulose) (HPC)
[12] = dose: 100.0 mg/kg/injection, schedule: Q01DX005 (ip), vehicle: Klucel (hydroxypropylcellulose) (HPC)
[13] = dose: 200.0 mg/kg/injection, schedule: Q01DX005 (ip), vehicle: Klucel (hydroxypropylcellulose) (HPC)
[14] = dose: 100.0 mg/kg/injection, schedule: Q01DX009 (ip), vehicle: saline with Tween-80
[15] = dose: 200.0 mg/kg/injection, schedule: Q01DX009 (ip), vehicle: saline with Tween-80
[16] = dose: 50.0 mg/kg/injection, schedule: Q01DX005 (ip), vehicle: saline with Tween-80
[17] = dose: 100.0 mg/kg/injection, schedule: Q01DX005 (ip), vehicle: saline with Tween-80
[18] = dose: 200.0 mg/kg/injection, schedule: Q01DX005 (ip), vehicle: saline with Tween-80

## CCOC1OCN(C)CC1(C)C (configuration not stated)
dose: 50.0 mg/kg/injection, schedule: Q04DX003 (ip), vehicle: saline
  T/C: 109 % of control
[1]
  T/C: 150 % of control
dose: 100.0 mg/kg/injection, schedule: Q04DX003 (ip), vehicle: saline
  T/C: 113 % of control
dose: 200.0 mg/kg/injection, schedule: Q04DX003 (ip), vehicle: saline
  T/C: 109 % of control

## C[N+](C)(C)c1ccc(/C=C/[N+](=O)[O-])cc1
[2]
  T/C: 95 % of control
[3]
  T/C: 102 % of control

## COc1cc2cc(=O)n(N)c(C)c2cc1OC
[4]
  T/C: 108 % of control
[1]
  T/C: 106 % of control
dose: 200.0 mg/kg/injection, schedule: Q01DX009 (ip), vehicle: saline
  T/C: 99 % of control

## COc1ccc(S(=O)(=O)NCCSSCCNS(=O)(=O)c2ccc(OC)cc2)cc1
[5]
  T/C: 91 % of control
[6]
  T/C: 93 % of control
[7]
  T/C: 94 % of control

## COC1CC(O)(CC#N)C(OC(=O)c2ccc([N+](=O)[O-])cc2)C(COC(=O)c2ccc([N+](=O)[O-])cc2)O1 (configuration not stated)
dose: 100.0 mg/kg/injection, schedule: Q04DX003 (ip), vehicle: Klucel (hydroxypropylcellulose) (HPC)
  T/C: 94 % of control
dose: 200.0 mg/kg/injection, schedule: Q04DX003 (ip), vehicle: Klucel (hydroxypropylcellulose) (HPC)
  T/C: 101 % of control
dose: 400.0 mg/kg/injection, schedule: Q04DX003 (ip), vehicle: Klucel (hydroxypropylcellulose) (HPC)
  T/C: 104 % of control

## Cc1ccc(NC(=O)N2CCCCC2)cc1NC(=O)N1CCCCC1
[8]
  T/C: 94 % of control
[9]
  T/C: 91 % of control
[10]
  T/C: 88 % of control

## OCC#CCOCC(O)CCl (configuration not stated)
dose: 12.5 mg/kg/injection, schedule: Q01DX009 (ip), vehicle: water
  T/C: 103 % of control
dose: 25.0 mg/kg/injection, schedule: Q01DX009 (ip), vehicle: water
  T/C: 108 % of control
dose: 50.0 mg/kg/injection, schedule: Q01DX009 (ip), vehicle: water
  T/C: 107 % of control
dose: 100.0 mg/kg/injection, schedule: Q01DX009 (ip), vehicle: water
  T/C: 98 % of control
dose: 200.0 mg/kg/injection, schedule: Q01DX009 (ip), vehicle: water
  T/C: 103 % of control

## c1ccc(/C2=N\OCCCOc3ccccc32)cc1
[11]
  T/C: 88 % of control
[12]
  T/C: 87 % of control
[13]
  T/C: 87 % of control

## CC(=O)Nc1ccc(N=NN(C)Cc2ccccc2)cc1
dose: 25.0 mg/kg/injection, schedule: Q01DX001 (ip), vehicle: Klucel (hydroxypropylcellulose) (HPC)
  T/C: 102 % of control
dose: 50.0 mg/kg/injection, schedule: Q01DX001 (ip), vehicle: Klucel (hydroxypropylcellulose) (HPC)
  T/C: 92 % of control

## CC(C)CCCCc1c[nH]c(=O)[nH]c1=O
[14]
  T/C: 95 % of control
[15]
  T/C: 90 % of control
dose: 400.0 mg/kg/injection, schedule: Q01DX009 (ip), vehicle: saline with Tween-80
  T/C: 100 % of control

## CCOc1cccc2c(NCCCCCCCCNc3c4ccccc4nc4c(OCC)cccc34)c3ccccc3nc12
dose: 3.75 mg/kg/injection, schedule: Q01DX009 (ip), vehicle: other
  T/C: 166 % of control
dose: 7.5 mg/kg/injection, schedule: Q01DX009 (ip), vehicle: other
  T/C: 157 % of control

## CC(=O)N(C)c1ccc(Nc2cc(S(=O)(=O)O)c(N)c3c2C(=O)c2ccccc2C3=O)cc1
dose: 60.0 mg/kg/injection, schedule: Q01DX005 (ip), vehicle: saline
  T/C: 98 % of control
dose: 120.0 mg/kg/injection, schedule: Q01DX005 (ip), vehicle: saline
  T/C: 100 % of control
dose: 240.0 mg/kg/injection, schedule: Q01DX005 (ip), vehicle: saline
  T/C: 90 % of control

## CC1(C)OC2OC(/C=N\NC(=O)c3cc4cc(OCc5ccccc5)ccc4[nH]3)C3OC(C)(C)OC3C2O1 (configuration not stated)
[11]
  T/C: 102 % of control
[12]
  T/C: 104 % of control
[13]
  T/C: 102 % of control

## Cn1nc2c(cc1=O)Cc1ccccc1-2
[16]
  T/C: 103 % of control
[17]
  T/C: 98 % of control
[18]
  T/C: 101 % of control

## Cc1[nH]c(=O)nc(Nc2ccc(Cl)cc2)c1C(=O)N1CCN(CCO)CC1
[8]
  T/C: 93 % of control
[9]
  T/C: 90 % of control and 93 % of control
[10]
  T/C: 102 % of control and 93 % of control

## CSc1ccccc1[As](c1ccccc1)c1ccccc1SC
[5]
  T/C: 90 % of control
[6]
  T/C: 92 % of control
[7]
  T/C: 95 % of control

## CCCCOP(=O)(O)OCCCC.[V]
dose: 6.25 mg/kg/injection, schedule: Q01DX009 (ip), vehicle: saline with Tween-80
  T/C: 99 % of control
[2]
  T/C: 96 % of control
[3]
  T/C: 97 % of control
[14]
  T/C: 104 % of control
[15]
  T/C: 103 % of control

## Cc1cc(C)c2nc(C)c(C)[n+]([O-])c2c1
[16]
  T/C: 101 % of control
[17]
  T/C: 100 % of control
[18]
  T/C: 100 % of control

## CC(=O)C1C(=O)C(=O)N(c2ccc(S(N)(=O)=O)cc2)C1=O (configuration not stated)
[8]
  T/C: 103 % of control
[9]
  T/C: 104 % of control
[10]
  T/C: 118 % of control

## COc1ccc(NC(=S)Nc2ccc(S(=O)(=O)N3CCCCC3)cc2)cc1
[5]
  T/C: 94 % of control
[6]
  T/C: 94 % of control and 95 % of control
[7]
  T/C: 98 % of control

## CCOC(=O)CCC(=O)N(CCCNc1c2ccccc2nc2c(OC)cccc12)CCCNc1c2ccccc2nc2c(OC)cccc12
dose: 1.25 mg/kg/injection, schedule: Q01DX009 (ip), vehicle: water
  T/C: 111 % of control
dose: 2.5 mg/kg/injection, schedule: Q01DX009 (ip), vehicle: water
  T/C: 116 % of control
dose: 20.0 mg/kg/injection, schedule: Q01DX009 (ip), vehicle: water
  T/C: 97 % of control

## NC(=O)C(Cl)Cl
dose: 100.0 mg/kg/injection, schedule: Q04DX002 (ip), vehicle: saline
  T/C: 108 % of control
dose: 200.0 mg/kg/injection, schedule: Q04DX002 (ip), vehicle: saline
  T/C: 100 % of control
dose: 400.0 mg/kg/injection, schedule: Q04DX002 (ip), vehicle: saline
  T/C: 100 % of control

## Cn1c(C(=O)NN)cc2cc(OCc3ccccc3)ccc21
[11]
  T/C: 97 % of control
[12]
  T/C: 100 % of control
[13]
  T/C: 98 % of control

## N#C/C(=C\C(Cl)=C/c1ccccc1)C(N)=S
[4]
  T/C: 103 % of control
[1]
  T/C: 100 % of control

## CCOc1cc2c(cc1C(C)c1ccc(OC)c(C)c1)OCO2 (configuration not stated)
dose: 12.5 mg/kg/injection, schedule: Q01DX005 (ip), vehicle: Klucel (hydroxypropylcellulose) (HPC)
  T/C: 92 % of control
dose: 25.0 mg/kg/injection, schedule: Q01DX005 (ip), vehicle: Klucel (hydroxypropylcellulose) (HPC)
  T/C: 91 % of control
[11]
  T/C: 102 % of control and 111 % of control
[12]
  T/C: 101 % of control and 112 % of control
[13]
  T/C: 101 % of control and 114 % of control

## Cc1ccc2nc3c(nc2c1)n(-c1ccccc1)c(=O)n3-c1cccc(Br)c1
[16]
  T/C: 88 % of control
[17]
  T/C: 91 % of control
[18]
  T/C: 100 % of control

## Nc1nnc2nc(CC(=O)/C=C/c3ccccc3)c(CC(=O)/C=C/c3ccccc3)nn12
dose: 50.0 mg/kg/injection, schedule: Q01DX005 (ip), vehicle: saline
  T/C: 98 % of control
dose: 100.0 mg/kg/injection, schedule: Q01DX005 (ip), vehicle: saline
  T/C: 97 % of control
dose: 200.0 mg/kg/injection, schedule: Q01DX005 (ip), vehicle: saline
  T/C: 104 % of control

## CCC1=CCC2C(=O)C3C(C(=O)C2C1)C1(c2ccccc2)OC3(c2ccccc2)c2ccccc21 (configuration not stated)
dose: 50.0 mg/kg/injection, schedule: Q01DX009 (ip), vehicle: saline with Tween-80
  T/C: 95 % of control
[14]
  T/C: 88 % of control
[15]
  T/C: 87 % of control

## NC(=O)c1[nH]cnc1O
dose: 12.5 mg/kg/injection, schedule: Q01DX005 (ip), vehicle: saline with Tween-80
  T/C: 114 % of control
dose: 25.0 mg/kg/injection, schedule: Q01DX005 (ip), vehicle: saline with Tween-80
  T/C: 107 % of control
[16]
  T/C: 108 % of control and 123 % of control
[17]
  T/C: 114 % of control and 123 % of control
dose: 100.0 mg/kg/injection, schedule: Q04DX002 (ip), vehicle: saline with Tween-80
  T/C: 100 % of control
[18]
  T/C: 123 % of control
dose: 200.0 mg/kg/injection, schedule: Q04DX002 (ip), vehicle: saline with Tween-80
  T/C: 110 % of control

## Cc1ccc(/C(CBr)=N/N=C(/CBr)c2ccc(C)cc2)cc1
[5]
  T/C: 100 % of control
[6]
  T/C: 92 % of control
[7]
  T/C: 98 % of control
